Experiments:
[1] = molecular target: T1, Aβ1-42 (Homo sapiens, UniProt P05067); assay: FRET assay of Aβ1-42 oligomer (ADDL) formation; format: biochemical; settings: for IC50: assay of Example 1, 0.2 µM FITC-Aβ(1-42) and 0.8 µM Aβ(1-42), 100 mM MgCl2, pH 8.0, 37°C
T1 construct: containing 0.2 µM FITC-Aβ(1-42) and 0.8 µM Aβ(1-42)
Source text: Fluorescence (or Förster) Resonance Energy Transfer (FRET) is a distance-dependent, non-radiative transfer of energy in which the de-excitation of one fluorophore (donor) is coupled to excitation of another fluorophore (acceptor). FRET occurs if (1) the quantum of energy emitted by a donor fluorophore corresponds to an acceptor fluorophore's excitation energy, (2) the orientations of donor and acceptor transition dipoles are nearly parallel and (3) the donor fluorescent emission spectrum overlaps the acceptor absorption spectrum.
In this assay, Aβ1-42 oligomer formation is monitored by FRET using N-terminal conjugates of fluorescein-Aβ1-42 as both the donor and acceptor fluorophore (fluorescein-fluorescein Ro∼45 Å). […] Inhibition of Aβ1-42 assembly is observed as the absence or attenuation of fluorescein quenching.
FRET and FP assays are performed in 384-well Coming Non-Binding Surface, black, opaque microtiter plates, and the assay buffer consists of 50 mM MOPS-Tris (pH 8.0) with 100 mM MgCl2. […] ADDL assembly is monitored on a Tecan GENios Pro plate reader, exciting at a wavelength of 485 nm and detecting emission at a wavelength of 515 nm. Kinetic traces are collected by recording fluorescence intensity and polarization readings every five minutes over about three to about a six-hour time course. […] Positive control reactions contain all buffer components in the absence of added small molecule or antibody reagents. […]

[2] = molecular target: T2, Aβ1-42 ADDLs (Homo sapiens, UniProt P05067); assay: Alternating Lever Cyclic Ratio (ALCR) rat model; format: in vivo; settings: for Approach Errors Mean / Perseveration Errors Mean: 20 µl via cannula aimed at lateral ventricle, tested about 3 hours following injection, base line error rate equalized to 1.00
T2 construct: Synthetic Aβ1-42 powder was dissolved in 1,1,1,3,3,3 hexafluorisopropanol (HFIP)
T2 sequence (P05067 672-713 limits assumed): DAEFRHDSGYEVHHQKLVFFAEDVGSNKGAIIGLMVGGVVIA
Experimental: Preparations of Aβ1-42 ADDLs and a potential therapeutic compounds under the Alternating Lever Cyclic Ratio (ALCR) rat model of AD were tested. This highly sensitive model has been able to detect cognitive deficits due to direct injection of cell-derived Aβ oligomers into rat brain. In this study, a direct injection of ADDLs made from synthetic Aβ1-42 and a putative therapeutic compound under the ALCR procedure were tested.
The ALCR test has proven to be much more sensitive than previously published methods for measuring drug effects on cognitive function. In this task, rats must learn a complex sequence of lever-pressing requirements in order to earn food reinforcement in a two-lever experimental chamber. Subjects must alternate between two levers by switching to the other lever after pressing the first lever enough to get food reward. The exact number of presses required for each food reward changes, first increasing from 2 responses per food pellet up to 56 presses per food pellet, then decreasing back to 2 responses per pellet. Intermediate values were based on the quadratic function, x^2 - x. One cycle was an entire ascending and descending sequence of these lever press requirements (e.g., 2, 6, 12, 20, 30, 42, 56, 56, 42, 30, 20, 12, 6, and 2 presses per food reward). Six such full cycles were presented during each daily session.
Synthetic Aβ1-42 powder was dissolved in 1,1,1,3,3,3 hexafluorisopropanol (HFIP) to afford a solution of Aβ1-42 in HFIP of about 1 mM and allowed to incubate at ambient temperature for about 1 h. The resulting solution was chilled on ice for about 5-10 min, then aliquoted into eppendorf tubes to provide about 50 µl of solution per tube. The tubes were then placed in a chemical fume hood and allowed to stand overnight to allow the HFIP to evaporate under a slow stream of nitrogen. To removed final traces of HFIP, the tubes were subjected to two SpeedVac cycles of 15 min at room temperature and about 15 to 25 in Hg of vacuum. The resulting films of monomerized Aβ1-42 peptide were stored over desiccant at -80 °C until used.
A tube of monomerized Aβ1-42 peptide was warmed to room temperature and the Aβ1-42 peptide was dissolved in anhydrous DMSO to afford a peptide stock DMSO solution containing about 10 µM to about 100 µM Aβ1-42 peptide in DMSO.
2 µl of a 20 mM stock solution of test compound in anhydrous DMSO is added to 998 µl of neural basal media (phenol red free, Gibco 12348-017) to give a compound neural basal media solution containing 40 µM of test compound in neural basal media.
For the Aβ1-42 peptide only treatment, peptide stock DMSO solution is added to 37 °C neural basal to obtain the requisite Aβ1-42 peptide monomer concentration, provided that the maximum concentration of DMSO is 1% or less, and the tube is vortexed for 30 to 60 seconds, spun down briefly in a microfuge and incubated at 37 °C for 15 min prior to the start of injections.
For the Aβ1-42 peptide plus test compound treatment, peptide stock DMSO solution is added to 37 °C compound neural basal media solution to obtain the requisite Aβ1-42 peptide monomer concentration, provided that the maximum concentration of DMSO is 1% or less, and the tube is vortexed for 30 to 36 seconds, spun down briefly in a microfuge and incubated at 37 °C for 15 min prior to the start of injections.
For control injections, compound neural basal media solution is incubated at 37 °C for 15 min prior to the start of injections.
Rats: Rats were trained under ALCR until their error rates were stable. Once the rats were placed upon the final ALCR procedure, training sessions were conducted 7 days each week until the end of the study.
Surgery: All rats received a single 28 ga cannula, which was permanently affixed to the skull, and aimed at the lateral ventricle. Half the rats received cannula in the right ventricle and half received cannula in the left ventricle. Rats were allowed 5 days to recover from surgery before training resumed. […]

[3] = compound combined with Aβ1-42 ADDLs

T1 sequence (P05067 672-713 limits assumed): as above

Compound | IC50 [1] [µM] | further results
NCCCS(=O)(=O)O [Alzhemed, 3-amino-1-propanesulfonic acid, reference compound] | – | inhibition of Aβ1-42 monomer assembly into Aβ oligomers ([1]; standard FRET assay conditions of Example 1, comparative example, FIG 2): inability
O=C(C/C(=N/NC(=O)c1ccccc1O)C(F)(F)F)c1cccs1 [Compound 2, 2-Hydroxy-benzoic acid [3-oxo-3-thiophen-2-yl-1-trifluoromethyl-prop-(Z)-ylidene]-hydrazide] | 26 | –
O=C(C/C(=N/NC(=O)c1ccccc1O)C(F)(F)F)c1ccco1 [Compound 3, 2-Hydroxy-benzoic acid [3-oxo-3-furan-2-yl-1-trifluoromethyl-prop-(Z)-ylidene)-hydrazide] | 13.5 | –
CCOC(=O)c1c(NC(=O)C(=O)N/N=C/c2ccccc2O)sc2c1CCC(C)C2 (centres unmarked) [Compound 7, 2-{[1-(2-Hydroxyphenyl)-meth-(E)-ylidene-hydrazinooxalyl]-amino} -6-methyl-4,5,6,7-tetrahydro-benzo[b]thiophene-3-carboxylic acid ethyl ester] | – | inhibition of Aβ1-42 oligomer assembly ([1]; 1 mM Aβ1-42 total monomer, 100 mM MgCl2, compound ranging from 0.05 to 3 mM, FIG. 1): dose dependent inhibition
CCC1=NN(C(=O)C(=O)Nc2ccccc2OC)C(O)(C(F)(F)F)C1 (centres unmarked) [Compound 8, 2-(3-ethyl-5-hydroxy-5-(trifluoromethyl)-4,5-dihydro-1H-pyrazol-1-yl)-N-(2-methoxyphenyl)-2-oxoacetamide] | 7 | –
CCCC1=NN(C(=O)C(=O)Nc2ccccc2OC)C(O)(C(F)(F)F)C1 (centres unmarked) [Compound 9, 2-(5-hydroxy-3-propyl-5-(trifluoromethyl)-4,5-dihydro-1H-pyrazol-1-yl)-N-(2-methoxyphenyl)-2-oxoacetamide] | 6.4 | –
COc1ccccc1NC(=O)C(=O)N1N=C(C(C)C)CC1(O)C(F)(F)F (centres unmarked) [Compound 10, 2-(5-hydroxy-3-isopropyl-5-(trifluoromethyl)-4,5-dihydro-1H-pyrazol-1-yl)-N-(2-methoxyphenyl)-2-oxoacetamide] | 24.3 | –
CCCC1=NN(C(=O)c2ccccc2O)C(O)(C(F)(F)F)C1 (centres unmarked) [Compound 12, (5-hydroxy-3-propyl-5-(trifluoromethyl)-4,5-dihydro-1H-pyrazol-1-yl)(2-hydroxyphenyl)methanone] | 8.5 | –
CCC1=NN(C(=O)C(=O)Nc2ccc(Br)cc2)C(O)(C(F)(F)F)C1 (centres unmarked) [Compound 13, N-(4-bromophenyl)-2-(3-ethyl-5-hydroxy-5-(trifluoromethyl)-4,5-dihydro-1H-pyrazol-1-yl)-2-oxoacetamide] | 17 | –
CCCC1=NN(C(=O)C(=O)NCCc2ccccc2)C(O)(C(F)(F)F)C1 (centres unmarked) [Compound 14, 2-(5-hydroxy-3-propyl-5-(trifluoromethyl)-4,5-dihydro-1H-pyrazol-1-yl)-2-oxo-N-phenethylacetamide] | 34.4 | –
CCCC1=NN(C(=O)C(=O)Nc2ccc(Br)cc2)C(O)(C(F)(F)F)C1 (centres unmarked) [Compound 15, N-(4-bromophenyl)-2-(5-hydroxy-3-propyl-5-(trifluoromethyl)-4,5-dihydro-1H-pyrazol-1-yl)-2-oxoacetamide] | 7.8 | –
CCCCC1=NN(C(=O)C(=O)NCCc2ccccc2)C(O)(C(F)(F)F)C1 (centres unmarked) [Compound 16, 2-(3-butyl-5-hydroxy-5-(trifluoromethyl)-4,5-dihydro-1H-pyrazol-1-yl)-2-oxo-N-phenethylacetamide] | 38.8 | –
CC(C)CC1=NN(C(=O)C(=O)NCCc2ccccc2)C(O)(C(F)(F)F)C1 (centres unmarked) [Compound 17, 2-(5-hydroxy-3-isobutyl-5-(trifluoromethyl)-0,5-dihydro-1H-pyrazol-1-yl)-2-oxo-N-phenethylacetamide] | 41.3 | –
CCCCCC1=NN(C(=O)C(=O)Nc2ccc(Br)cc2)C(O)(C(F)(F)F)C1 (centres unmarked) [Compound 18, N-(4-bromophenyl)-2-(5-hydroxy-3-pentyl-5-(trifluoromethyl)-4,5-dihydro-1H-pyrazol-1-yl)-2-oxoacetamide] | 11.6 | –
CCCCCC1=NN(C(=O)C(=O)Nc2ccc(OC)cc2)C(O)(C(F)(F)F)C1 (centres unmarked) [Compound 19, 2-(5-hydroxy-3-pentyl-5-(trifluoromethyl)-4,5-dihydro-1H-pyrazol-1-yl)-N-(4-methoxyphenyl)-2-oxoacetamide] | 8.7 | –
CC(C)CCC1=NN(C(=O)C(=O)NCCc2ccccc2)C(O)(C(F)(F)F)C1 (centres unmarked) [Compound 20, 2-(5-hydroxy-3-isopentyl-5-(trifluoromethyl)-4,5-dihydro-1H-pyrazol-1-yl)-2-oxo-N-phenethylacetamide] | 17 | –
CCCCCCC1=NN(C(=O)C(=O)Nc2ccc(OC)cc2)C(O)(C(F)(F)F)C1 (centres unmarked) [Compound 22, 2-(3-hexyl-5-hydroxy-5-(trifluoromethyl)-4,5-dihydro-1H-pyrazol-1-yl)-N-(4-methoxyphenyl)-2-oxoacetamide] | 8.2 | –
COc1ccccc1NC(=O)C(=O)N1N=C(C2CCCCC2)CC1(O)C(F)(F)F (centres unmarked) [Compound 23, 2-(3-cyclohexyl-5-hydroxy-5-(trifluoromethyl)-4,5-dihydro-1H-pyrazol-1-yl)-N-(2-methoxyphenyl)-2-oxoacetamide] | 29.1 | –
O=C(N/N=C/c1c(O)ccc2ccccc12)c1ccccc1O [Compound 24, (E)-2-hydroxy-N'-((2-hydroxynaphthalen-1-yl)methylene) benzohydrazide] | – | increase in Perseveration Errors ([2]; combined with the requisite concentration of Aβ1-42 ADDLs, result in words): eliminated the increase in Perseveration Errors; Approach Errors Mean [2, 3]: 1.00; Perseveration Errors Mean [2, 3]: 0.92; error rates ([2]; given alone, result in words): did not increase error rates; Approach Errors Mean ([2]; injectate given alone): 0.96; Perseveration Errors Mean ([2]; injectate given alone): 0.95
O=C(N/N=C/c1cc(Br)cc(Br)c1O)c1ccccc1O [Compound 26, (E)-N'-(3,5-dibromo-2-hydroxybenzylidene)-2-hydroxybenzohydrazide] | 5.8 | –
O=C(N/N=C/c1cc(Br)ccc1O)c1ccccc1O [Compound 27, (E)-N'-(5-bromo-2-hydroxybenzylidene)-2-hydroxybenzohydrazide] | 19.3 | –
Aβ1-42 ADDLs: ADDLs made from synthetic Aβ1-42; soluble, oligomeric, globular, non-fibrillar, neurotoxic Aβ1-42 peptides | – | Approach Errors Mean ([2]; injectate given alone): 1.02; Perseveration Errors Mean ([2]; injectate given alone): 1.33; Perseveration Error rate ([2]; versus baseline error rates, ADDLs alone, result in words): significantly increased
